# Read-outs that look alike come from different tables or passages of the source.
# What was measured:
# [1] = target: KRAS G12S (Homo sapiens, UniProt P01116+P62937, G12S); experiment: Ras-Raf disruption/FRET/MOA assay, KRAS G12S; type: biochemical; conditions: disruption of BRAF RBD binding, with Cyclophilin A; read-out: KRAS G12S FRET IC50
# In short: (§1)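 His6-KRAS-GMPPNP (12.5 nM) was combined with tagless Cyclophilin A (25 μM) and GST-BRAF^RBD (50 nM) in pH 7.3 HEPES buffer with NaCl, MgCl2, Tween20 and BSA. Compound was tested as a 10-point 3-fold series from 30 μM final, 3 h at 25° C. Disruption was read as a drop in TR-FRET ratio versus DMSO.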
# [2] = target: T1, NRAS G12C (Homo sapiens, UniProt P01111+P62937, G12C); experiment: Ras-Raf disruption/FRET/MOA assay, NRAS G12C; type: biochemical; conditions: NRAS G12C; read-out: NRAS G12C FRET data IC50
# T1 construct: His6
# T1 sequence (P01111 whole entry G12C): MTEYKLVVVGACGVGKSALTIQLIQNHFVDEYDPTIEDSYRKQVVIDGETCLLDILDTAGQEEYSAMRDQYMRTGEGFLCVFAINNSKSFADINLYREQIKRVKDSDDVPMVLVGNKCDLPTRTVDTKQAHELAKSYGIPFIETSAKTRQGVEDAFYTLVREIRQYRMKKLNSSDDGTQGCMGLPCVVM
# T1 sequence (P62937 whole entry): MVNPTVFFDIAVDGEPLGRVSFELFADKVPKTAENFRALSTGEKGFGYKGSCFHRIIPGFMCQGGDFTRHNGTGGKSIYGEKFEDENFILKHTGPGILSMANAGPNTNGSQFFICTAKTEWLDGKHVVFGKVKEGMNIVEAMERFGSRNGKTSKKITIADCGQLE
# In short: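 Disruption of Ras:RAF binding was read as a drop in TR-FRET ratio versus DMSO controls. The buffer was 25 mM HEPES pH 7.3, 0.002% Tween20, 0.1% BSA, 100 mM NaCl and 5 mM MgCl2. Compounds were tested as a 10-point 3-fold dilution series from 30 μM. Detection used 10 nM anti-His Eu-W1024 and 50 nM anti-GST allophycocyanin.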
# [3] = target: KRAS G12C (Homo sapiens, UniProt P01116+P62937, G12C); experiment: Ras-Raf disruption/FRET/MOA assay, KRAS G12C; type: biochemical; conditions: disruption of BRAF RBD binding, with Cyclophilin A; read-out: KRAS G12C FRET IC50
# Chain of KRAS G12C (P01116 1-169 isoform P01116-2 G12C limits assumed): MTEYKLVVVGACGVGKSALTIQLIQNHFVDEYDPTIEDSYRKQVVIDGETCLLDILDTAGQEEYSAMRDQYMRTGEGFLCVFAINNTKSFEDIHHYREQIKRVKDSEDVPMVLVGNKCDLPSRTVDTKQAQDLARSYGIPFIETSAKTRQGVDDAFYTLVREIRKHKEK
# Chain of KRAS G12C (P62937 whole entry): as the sequence (P62937 whole entry) above
# In short: as §1
# [4] = target: KRAS G13D (Homo sapiens, UniProt P01116+P62937, G13D); experiment: Ras-Raf disruption/FRET/MOA assay, KRAS G13D; type: biochemical; conditions: disruption of BRAF RBD binding, with Cyclophilin A; read-out: KRAS G13D FRET IC50
# Chain of KRAS G13D (P01116 1-169 isoform P01116-2 G13D limits assumed): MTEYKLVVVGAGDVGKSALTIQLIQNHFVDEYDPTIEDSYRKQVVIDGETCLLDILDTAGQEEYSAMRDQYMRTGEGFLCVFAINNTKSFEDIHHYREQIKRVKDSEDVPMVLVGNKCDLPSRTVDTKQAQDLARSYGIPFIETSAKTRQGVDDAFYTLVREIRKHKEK
# Chain of KRAS G13D (P62937 whole entry): as the sequence (P62937 whole entry) above
# In short: as §1
# [5] = target: KRAS G12V (Homo sapiens, UniProt P01116+P62937, G12V); experiment: Ras-Raf disruption/FRET/MOA assay, KRAS G12V; type: biochemical; conditions: disruption of BRAF RBD binding, with Cyclophilin A; read-out: KRAS G12V FRET IC50
# Chain of KRAS G12V (P01116 1-169 isoform P01116-2 G12V limits assumed): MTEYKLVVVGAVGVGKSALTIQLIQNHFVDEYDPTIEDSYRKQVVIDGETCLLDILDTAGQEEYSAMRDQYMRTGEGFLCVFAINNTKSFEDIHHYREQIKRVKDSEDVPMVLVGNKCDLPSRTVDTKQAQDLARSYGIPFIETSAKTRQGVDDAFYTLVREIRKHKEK
# Chain of KRAS G12V (P62937 whole entry): as the sequence (P62937 whole entry) above
# In short: as §1
# [6] = target: T2, NRAS WT (Homo sapiens, UniProt P01111+P62937); experiment: Ras-Raf disruption/FRET/MOA assay, NRAS WT; type: biochemical; conditions: NRAS WT; read-out: NRAS WT FRET data IC50
# T2 construct: His6
# T2 sequence (P01111 whole entry): as the sequence (P01111 whole entry G12C) above, with C12G counted along it
# T2 sequence (P62937 whole entry): as the sequence (P62937 whole entry) above
# Source text: (§2) Disruption of B-Raf Ras-Binding Domain (BRAF^RBD) Interaction with K-Ras by Compounds of the Invention (Also Called a FRET Assay or an MOA Assay)
# (§3) Note—The following protocol describes a procedure for monitoring disruption of K-Ras G12C (GMP-PNP) binding to BRAF^RBD by a compound of the invention. This protocol may also be executed substituting other Ras proteins or nucleotides, such as K-Ras G12D and K-Ras G13D.
# (§4) The purpose of this biochemical assay was to measure the ability of test compounds to facilitate ternary complex formation between a nucleotide-loaded K-Ras isoform and Cyclophilin A; the resulting ternary complex disrupts binding to a BRAF^RBD construct, inhibiting K-Ras signaling through a RAF effector.
# (§5) In assay buffer containing 25 mM HEPES pH 7.3, 0.002% Tween20, 0.1% BSA, 100 mM NaCl and 5 mM MgCl2, tagless Cyclophilin A, His6-K-Ras-GMPPNP, and GST-BRAF^RBD were combined in a 384-well assay plate at final concentrations of 25 μM, 12.5 nM, and 50 nM, respectively. Compound was present in plate wells as a 10-point 3-fold dilution series starting at a final concentration of 30 μM. After incubation at 25° C. for 3 hours, a mixture of anti-His Eu-W1024 and anti-GST allophycocyanin was then added to assay sample wells at final concentrations of 10 nM and 50 nM, respectively, and the reaction incubated for an additional 1.5 hours. […] Compounds that facilitate disruption of a K-Ras:RAF complex were identified as those eliciting a decrease in the TR-FRET ratio relative to DMSO control wells.
# [7] = target: T3, NRAS Q61R (Homo sapiens, UniProt P01111+P62937, Q61R); experiment: Ras-Raf disruption/FRET/MOA assay, NRAS Q61R; type: biochemical; conditions: NRAS Q61R; read-out: NRAS Q61R FRET data IC50
# T3 construct: His6
# T3 sequence (P01111 whole entry Q61R): as the sequence (P01111 whole entry G12C) above, with C12G, Q61R counted along it
# T3 sequence (P62937 whole entry): as the sequence (P62937 whole entry) above
# Source text: as §2, §3, §4, §5
# [8] = tested on: AsPC-1 (K-Ras G12D); experiment: CellTiter-Glo cell viability assay, AsPC-1; type: cell-based; conditions: Homo sapiens, ASPC1, 120 h, read-out: AsPC-1 Cell Viability IC50
# In short: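 Luminescence from CellTiter-Glo serves as the viability read-out after cells are treated with compound for 5 days. Each well's signal is divided by the DMSO average and multiplied by 100, and curves are fitted by four-parameter logistic regression.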
# [9] = target: T4, NRAS Q61K (Homo sapiens, UniProt P01111+P62937, Q61K); experiment: Ras-Raf disruption/FRET/MOA assay, NRAS Q61K; type: biochemical; conditions: NRAS Q61K; read-out: NRAS Q61K FRET data IC50
# T4 construct: His6
# T4 sequence (P01111 whole entry Q61K): as the sequence (P01111 whole entry G12C) above, with C12G, Q61K counted along it
# T4 sequence (P62937 whole entry): as the sequence (P62937 whole entry) above
# Source text: as §2, §3, §4, §5
# [10] = target: KRAS WT (Homo sapiens, UniProt P01116+P62937); experiment: Ras-Raf disruption/FRET/MOA assay, KRAS WT; type: biochemical; conditions: disruption of BRAF RBD binding, with Cyclophilin A; read-out: KRAS WT FRET IC50
# Chain of KRAS WT (P01116 1-169 isoform P01116-2 limits assumed): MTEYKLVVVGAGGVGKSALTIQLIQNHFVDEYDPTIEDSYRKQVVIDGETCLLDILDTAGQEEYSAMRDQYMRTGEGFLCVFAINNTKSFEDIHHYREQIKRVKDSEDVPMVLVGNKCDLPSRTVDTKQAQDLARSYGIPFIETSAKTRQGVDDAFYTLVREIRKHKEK
# Chain of KRAS WT (P62937 whole entry): as the sequence (P62937 whole entry) above
# In short: as §1
# [11] = target: KRAS G13C (Homo sapiens, UniProt P01116+P62937, G13C); experiment: Ras-Raf disruption/FRET/MOA assay, KRAS G13C; type: biochemical; conditions: disruption of BRAF RBD binding, with Cyclophilin A; read-out: KRAS G13C FRET IC50
# Chain of KRAS G13C (P01116 1-169 isoform P01116-2 G13C limits assumed): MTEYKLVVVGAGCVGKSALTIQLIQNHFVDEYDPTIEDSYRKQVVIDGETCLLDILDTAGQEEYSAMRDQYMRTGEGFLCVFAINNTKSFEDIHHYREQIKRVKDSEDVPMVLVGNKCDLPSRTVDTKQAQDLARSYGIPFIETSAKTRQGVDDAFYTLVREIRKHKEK
# Chain of KRAS G13C (P62937 whole entry): as the sequence (P62937 whole entry) above
# In short: as §1
# [12] = target: KRAS Q61H (Homo sapiens, UniProt P01116+P62937, Q61H); experiment: Ras-Raf disruption/FRET/MOA assay, KRAS Q61H; type: biochemical; conditions: KRAS Q61H; read-out: KRAS Q61H FRET data IC50
# Chain of KRAS Q61H (P01116 1-169 isoform P01116-2 Q61H limits assumed): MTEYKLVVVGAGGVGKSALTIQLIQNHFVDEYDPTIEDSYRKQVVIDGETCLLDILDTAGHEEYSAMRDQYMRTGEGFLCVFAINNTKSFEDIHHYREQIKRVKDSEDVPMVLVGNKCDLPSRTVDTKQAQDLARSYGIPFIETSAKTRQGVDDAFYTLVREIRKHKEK
# Chain of KRAS Q61H (P62937 whole entry): as the sequence (P62937 whole entry) above
# Source text: as §2, §3, §4, §5
# [13] = target: KRAS G12D (Homo sapiens, UniProt P01116+P62937, G12D); experiment: Ras-Raf disruption/FRET/MOA assay, KRAS G12D; type: biochemical; conditions: disruption of BRAF RBD binding, with Cyclophilin A; read-out: KRAS G12D FRET IC50
# Chain of KRAS G12D (P01116 1-169 isoform P01116-2 G12D limits assumed): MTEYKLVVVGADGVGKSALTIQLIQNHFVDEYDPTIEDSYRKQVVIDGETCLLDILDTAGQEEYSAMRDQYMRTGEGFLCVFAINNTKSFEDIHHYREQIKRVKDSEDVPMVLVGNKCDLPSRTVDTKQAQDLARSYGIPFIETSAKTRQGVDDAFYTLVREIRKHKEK
# Chain of KRAS G12D (P62937 whole entry): as the sequence (P62937 whole entry) above
# In short: as §1
# [14] = tested on: AsPC-1 (K-Ras G12D); experiment: Potency assay: pERK in AsPC-1 cells; type: cell-based; conditions: Homo sapiens, ASPC1; AsPC-1 cells, K-Ras G12D; read-out: pERK EC50 (AsPC-1 KRAS G12D)
# [15] = AsPC-1, K-Ras G12D, 5-day treatment
# Chain of KRAS G12S (P01116 1-169 isoform P01116-2 G12S limits assumed): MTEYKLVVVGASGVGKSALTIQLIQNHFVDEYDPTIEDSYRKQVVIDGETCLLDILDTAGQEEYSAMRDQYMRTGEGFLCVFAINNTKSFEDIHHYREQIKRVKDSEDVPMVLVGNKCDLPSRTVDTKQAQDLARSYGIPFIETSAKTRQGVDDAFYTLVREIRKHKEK
# Chain of KRAS G12S (P62937 whole entry): as the sequence (P62937 whole entry) above
Structure (SMILES),IC50 [1],IC50 [2],IC50 [3],IC50 [4],IC50 [5],IC50 [6],IC50 [7],IC50 [8],IC50 [9],IC50 [10],IC50 [11],IC50 [12],IC50 [13],"IC50 [8, 15]",EC50 [14]
CCn1c(-c2cnccc2COC)c2c3cc(ccc31)-c1cc(O)cc(c1)C[C@H](NC(=O)[C@H](C(C)C)N(C)C(=O)CN(C)C(=O)[C@@H]1CN1S(C)(=O)=O)C(=O)N1CCC[C@H](N1)C(=O)OCC(C)(C)C2 (stereo partly shown) [Compound 37],10 to 100 nM,10 to 100 nM,10 to 100 nM,100 to 1000 nM,100 to 1000 nM,10 to 100 nM,100 to 1000 nM,> 10000 nM,100 to 1000 nM,10 to 100 nM,10 to 100 nM,10 to 100 nM,100 to 1000 nM,,
CCn1c(-c2cccnc2[C@H](C)OC)c2c3cc(ccc31)-c1cc(O)cc(c1)C[C@H](NC(=O)[C@H](C1CCCC1)N1CC[C@@]3(CCN(C(=O)[C@@H]4N[C@@H]4C4CC4)C3)C1=O)C(=O)N1CCC[C@H](N1)C(=O)OCC(C)(C)C2 [Compound 215],100 to 1000 nM,10 to 100 nM,10 to 100 nM,100 to 1000 nM,100 to 1000 nM,100 to 1000 nM,1000 to 10000 nM,,1000 to 10000 nM,100 to 1000 nM,10 to 100 nM,10 to 100 nM,100 to 1000 nM,1000 to 10000 nM,< 5000 nM
CCn1c(-c2cccnc2[C@H](C)OC)c2c3cc(ccc31)-c1cc(O)cc(c1)C[C@H](NC(=O)[C@H](C(C)C)N1CO[C@@]3(CCN(C(=O)[C@H]4CN4)C3)C1=O)C(=O)N1CCC[C@H](N1)C(=O)OCC(C)(C)C2 [Compound 232],100 to 1000 nM,10 to 100 nM,10 to 100 nM,100 to 1000 nM,100 to 1000 nM,100 to 1000 nM,100 to 1000 nM,,100 to 1000 nM,100 to 1000 nM,10 to 100 nM,10 to 100 nM,1000 to 10000 nM,1000 to 10000 nM,< 5000 nM
CCn1c(-c2cccnc2[C@H](C)OC)c2c3cc(ccc31)-c1cc(cc(C(F)F)c1)C[C@H](NC(=O)[C@H](C1CCCC1)N1CC[C@]3(CCN(C(=O)[C@H]4CN4)C3)C1=O)C(=O)N1CCC[C@H](N1)C(=O)OCC(C)(C)C2 [Compound 233],1000 to 10000 nM,100 to 1000 nM,100 to 1000 nM,1000 to 10000 nM,1000 to 10000 nM,1000 to 10000 nM,> 10000 nM,,1000 to 10000 nM,1000 to 10000 nM,100 to 1000 nM,100 to 1000 nM,1000 to 10000 nM,1000 to 10000 nM,< 5000 nM
